Test systems include MOLT-4 leukemia; NCI-H460 lung; LOX IMVI melanoma; IGROV1 ovarian; MDA-MB-435; NCI-H522 lung; 786-0 renal; HT29 colon; OVCAR-8 ovarian; M14 melanoma.
Common to all, as to test: NCI tumour cell line growth inhibition, 48 h

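Five compound concentrations were applied to cells in 96-well plates for 48 hours; endpoints were derived by simple linear interpolation of the resulting dose-response curve. The concentration for 50% growth inhibition is given as GI50. TGI: total growth inhibition.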 Where only a bound is given, the exact number is not on record here.

Take `C=C1C(=O)O[C@H]2[C@H]1CC/C(COC(=O)CSCC(=O)OC/C1=C/CC[C@@]3(C)O[C@H]3[C@H]3OC(=O)C(=C)[C@@H]3CC1)=C\CC[C@@]1(C)O[C@@H]21`: the GI50 in the test with MOLT-4 leukemia is 0.514 µM; in the test on NCI-H460 lung, 2.16 µM; in the test on LOX IMVI melanoma it was 1.58 µM; in the test on IGROV1 ovarian, 1.47 µM; with MDA-MB-435, 1.69 µM; with NCI-H522 lung, 1.08 µM. The GI50 is 1.5 µM in the test with 786-0 renal, 1.22 µM in the test with HT29 colon, 1.48 µM in the test on OVCAR-8 ovarian and 1.63 µM with M14 melanoma. Besides, the TGI was 2.81 µM in the test on MOLT-4 leukemia; 4.91 µM in the test on NCI-H460 lung; 3.1 µM in the test on LOX IMVI melanoma; 4.02 µM in the test with IGROV1 ovarian; 3.92 µM in the test on MDA-MB-435; 2.49 µM with NCI-H522 lung. Further, the TGI in the test with 786-0 renal amounted to 3.22 µM; in the test with HT29 colon, 2.56 µM; in the test with OVCAR-8 ovarian, 4.21 µM; with M14 melanoma it was 3.87 µM.

In the case of `O=C(N/N=C/c1ccccc1O)C(=O)Nc1ccc(F)cc1`, the GI50 is 2.87 µM in the test on MOLT-4 leukemia; 2.74 µM in the test on NCI-H460 lung; 4.28 µM with LOX IMVI melanoma; 4.29 µM with IGROV1 ovarian; 8.4 µM with MDA-MB-435; 3.01 µM in the test with NCI-H522 lung. For the same compound, the GI50 was 6.96 µM in the test with 786-0 renal, 8.86 µM in the test on HT29 colon, 4.3 µM with OVCAR-8 ovarian and 4.87 µM in the test on M14 melanoma. In addition, the TGI in the test with MOLT-4 leukemia is greater than 100 µM; in the test with NCI-H460 lung it was greater than 100 µM; in the test on LOX IMVI melanoma, greater than 100 µM; in the test on IGROV1 ovarian it was greater than 100 µM; with MDA-MB-435, greater than 100 µM; in the test with NCI-H522 lung, 52 µM. The TGI is greater than 100 µM with 786-0 renal, greater than 100 µM in the test with HT29 colon, greater than 100 µM in the test on OVCAR-8 ovarian and 40.4 µM in the test with M14 melanoma.

As for `COc1ccc2nc3cc(Cl)ccc3c(NCCCNCCC(C)O)c2c1` (stereo not given), the GI50 was 0.119 µM in the test with MOLT-4 leukemia; 0.178 µM with NCI-H460 lung; 0.356 µM in the test on LOX IMVI melanoma; 0.39 µM in the test on IGROV1 ovarian; 0.504 µM in the test on MDA-MB-435; 0.196 µM with NCI-H522 lung. For the same compound, the GI50 was 0.472 µM in the test with 786-0 renal, 0.172 µM in the test with HT29 colon, 0.426 µM in the test with OVCAR-8 ovarian and 0.59 µM in the test with M14 melanoma. Besides, the TGI is 1.58 µM in the test with MOLT-4 leukemia; 0.561 µM in the test on NCI-H460 lung; 1.46 µM in the test with LOX IMVI melanoma; 2.47 µM with IGROV1 ovarian; 1.79 µM with MDA-MB-435; 0.75 µM in the test with NCI-H522 lung. For the same compound, the TGI was determined as 1.94 µM in the test on 786-0 renal, 1.25 µM in the test on HT29 colon, 2.54 µM with OVCAR-8 ovarian and 2.02 µM with M14 melanoma.

`Cc1ccc(-c2cc(C3=CC(=O)C=CC3=O)n(-c3ccc(S(N)(=O)=O)cc3)n2)cc1`: the GI50 was 9.06 µM with MOLT-4 leukemia; 68.2 µM in the test with NCI-H460 lung; 31.2 µM with LOX IMVI melanoma; greater than 100 µM with IGROV1 ovarian; 59.4 µM in the test on MDA-MB-435; 59.9 µM with NCI-H522 lung. For the same compound, the GI50 with 786-0 renal is 26.6 µM; with HT29 colon it was 56.4 µM; in the test with OVCAR-8 ovarian it was 88.7 µM; with M14 melanoma, 31.8 µM. Besides, the TGI with MOLT-4 leukemia, in the test on NCI-H460 lung, in the test on LOX IMVI melanoma, in the test on IGROV1 ovarian, in the test on MDA-MB-435 and in the test on NCI-H522 lung was greater than 100 µM throughout. In addition, the TGI is 58.8 µM with 786-0 renal, greater than 100 µM in the test on HT29 colon, greater than 100 µM in the test with OVCAR-8 ovarian and 80.9 µM in the test with M14 melanoma.

With `c1cn2cc(-c3ccc4cn[nH]c4c3)nc(Nc3ccc(N4CCOCC4)cc3)c2n1`, the GI50 in the test on MOLT-4 leukemia is 96.9 µM; in the test on NCI-H460 lung it was 7.59 µM; in the test on LOX IMVI melanoma, 17.8 µM; in the test on IGROV1 ovarian, 16.5 µM; with MDA-MB-435 it was 12.8 µM; in the test with NCI-H522 lung, 12.3 µM. The GI50 in the test with 786-0 renal is 14.9 µM; in the test with HT29 colon, 9.01 µM; with OVCAR-8 ovarian it was 4.87 µM; with M14 melanoma it was 15.1 µM. The TGI in the test with MOLT-4 leukemia is greater than 100 µM; with NCI-H460 lung, 25.4 µM; in the test with LOX IMVI melanoma, greater than 100 µM; in the test with IGROV1 ovarian it was 46 µM; in the test on MDA-MB-435, greater than 100 µM; with NCI-H522 lung it was 39 µM. Also, the TGI came out at 32 µM in the test on 786-0 renal, 37 µM in the test on HT29 colon, 21.8 µM with OVCAR-8 ovarian and 62.3 µM with M14 melanoma.

As to `CC(=O)OC1CC2(O)C3CCC4CC(O)CCC4(C)C3CCC2(C)C1C1=CC(=O)OC1` (stereo not given), the TGI in the test with MOLT-4 leukemia came to 0.0593 µM; in the test on NCI-H460 lung, 0.124 µM; in the test with LOX IMVI melanoma, 0.209 µM; in the test on IGROV1 ovarian it was 1.77 µM; in the test on MDA-MB-435, 0.357 µM; in the test with NCI-H522 lung it was 0.185 µM. Besides, the TGI in the test with 786-0 renal worked out at 0.107 µM; in the test on HT29 colon, 0.779 µM; with OVCAR-8 ovarian it was 0.272 µM; in the test on M14 melanoma, 0.367 µM.

In the case of `S=C1Nc2ccc(Cl)cc2C2(c3ccccc3)N3CCN=C3NN12` (stereo not given), the GI50 in the test on MOLT-4 leukemia is 22.8 µM; in the test on NCI-H460 lung it was 23.7 µM; in the test with LOX IMVI melanoma, 17.6 µM; in the test on IGROV1 ovarian, 17.4 µM; with MDA-MB-435 it was 43.2 µM; in the test with NCI-H522 lung, 21.7 µM. In addition, the GI50 was 38.3 µM in the test with 786-0 renal, 28.1 µM in the test with HT29 colon, 52.3 µM in the test on OVCAR-8 ovarian and 39.9 µM in the test on M14 melanoma. Also, the TGI in the test on MOLT-4 leukemia is 61.6 µM; in the test on NCI-H460 lung it was 74.7 µM; in the test with LOX IMVI melanoma, 36.2 µM; in the test with IGROV1 ovarian, 40.9 µM; with MDA-MB-435 it was greater than 100 µM; with NCI-H522 lung it was 48.1 µM. For the same compound, the TGI in the test on 786-0 renal, in the test on HT29 colon, with OVCAR-8 ovarian and with M14 melanoma was greater than 100 µM each time.

With `C=CCC1(O)c2cccc(NCCO)c2C(=O)c2c(NCCO)cccc21`, the GI50 in the test with MOLT-4 leukemia, with NCI-H460 lung, in the test on LOX IMVI melanoma, in the test with IGROV1 ovarian, in the test on MDA-MB-435 and in the test with NCI-H522 lung was greater than 100 µM in each case. The GI50 with 786-0 renal, in the test on HT29 colon, in the test on OVCAR-8 ovarian and with M14 melanoma was greater than 100 µM in each case. Besides, the TGI in the test on MOLT-4 leukemia, with NCI-H460 lung, in the test on LOX IMVI melanoma, in the test with IGROV1 ovarian, in the test on MDA-MB-435 and in the test on NCI-H522 lung was greater than 100 µM throughout. In addition, the TGI in the test on 786-0 renal, in the test on HT29 colon, with OVCAR-8 ovarian and in the test on M14 melanoma was greater than 100 µM throughout.

Source of the values: PubChem BioAssay (NCI).
